From patent publication US8124054B2, “Chelating agent conjugated α-MSH peptide derivatives, preparation method thereof and composition for diagnosis and treatment of melanoma comprising the same as an active ingredient” (Korea Atomic Energy Research Institute, priority 2008, dated 2012)

Test system: B16/F1 murine melanoma
Type: in vivo, C57BL mice
Experimental: To the nape of the neck of 12 female C57BL mice, each weighing 18˜23 g, B16/F1 murine melanoma cells were injected at a density of 10^6 cells/mL. Two weeks later, the tumor was developed to a size of 0.5˜1 g. The ^177Lu-DOTA-Gly-Cyclic(Dap-Gln-His-dPhe-Arg-Trp-Asp)-Lys-Pro-Val-CONH2 prepared in Example 13 was injected to the mice at a dose of 5 μCi (1.6 μg in 100 μl of saline). 2, 4 and 24 hours later, the mice were sacrificed before organ excision.
For comparison for target selectivity, the mice that were injected with 2 μg of an unlabeled peptide 2 hours after the first injection and then with the radiolabeled peptide were used as a control.
The excised organs were analyzed for radioactivity using a gamma counter (1470 WIZARD Automatic Gamma Counter, PerkinElmer) and the results are plotted in FIG. 7.

receptor selectivity (concluded from tumor uptake with and without unlabeled peptide): high receptor selectivity
Substance: ^177Lu-labeled DOTA-Gly-cyclic(Dap-Glu-His-dPhe-Arg-Trp-Asp)-Lys-Pro-Val-CONH2 [Example 13]
tumor uptake in control injected with 2 μg of unlabeled peptide, compared with experimental groups (mouse, in vivo): lower tumor uptake
